Test results reported in PMC12046209, “Structure, Oligomerization, and Thermal Stability of a Recently Discovered Old Yellow Enzyme” (Proteins, 2025).

Molecular target: T1, FOYE (Old Yellow Enzyme from Ferrovum sp. JA12) (Ferrovum sp., UniProt Z9U1E9MGE1)
T1 construct: pET-28a(+), N-terminal 6xHis tag with thrombin site (removal not described; two tag residues visible in crystal); E. coli BL21(DE3) Star pLysS; homotetramer
T1 sequence (Z9U1E9MGE1 20-373): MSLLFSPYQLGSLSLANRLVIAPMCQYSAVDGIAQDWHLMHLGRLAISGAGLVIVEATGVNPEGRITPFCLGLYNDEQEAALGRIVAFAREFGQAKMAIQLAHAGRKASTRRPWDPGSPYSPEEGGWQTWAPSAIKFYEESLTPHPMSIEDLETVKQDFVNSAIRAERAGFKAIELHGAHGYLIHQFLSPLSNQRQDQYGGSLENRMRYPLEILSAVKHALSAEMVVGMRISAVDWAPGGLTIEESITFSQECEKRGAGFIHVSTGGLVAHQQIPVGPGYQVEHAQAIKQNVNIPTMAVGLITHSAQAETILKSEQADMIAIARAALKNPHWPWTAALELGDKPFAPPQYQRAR
Experiment: X-ray crystal structure
Assay type: binding
Settings: co-purified cofactor, present in all four protomers; crystals from Morpheus II condition E4, 20°C

## Cc1cc2nc3c(=O)[nH]c(=O)nc-3n(C[C@H](O)[C@H](O)[C@H](O)COP(=O)(O)O)c2cc1C [FMN]
  X-ray crystal structure: The electron density for the FMN is clearly visible in all the protomers
